Reference: patent publication US20260355212A1 (priority 2022, published 2026)
Read-outs that look alike come from different tables or passages of the source.

What was measured:
SARS-CoV-2 Mpro = SARS-CoV-2 Mpro (Severe acute respiratory syndrome coronavirus 2, UniProt P0DTD1); test: SARS-CoV-2 Mpro enzymatic inhibition assay (fluorescence); type: biochemical
Method in brief: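 A fluorescence readout (340 nm excitation, 490 nm emission) was taken after the substrate reaction ran 60 min at 30° C. Before substrate addition, E. coli-expressed protease and compound (3-fold dilutions, 10 doses, duplicates) sat together 30 min at room temperature. Percent inhibition was fitted by variable-slope nonlinear regression to give IC50.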

HCoV-229E Mpro = HCoV-229E Mpro (Human coronavirus 229E, UniProt P0C6X1); test: HCoV-229E Mpro enzymatic inhibition assay (fluorescence); type: biochemical
HCoV-HKU1 Mpro = HCoV-HKU1 Mpro (Human coronavirus HKU1, UniProt P0C6X2); test: HCoV-HKU1 Mpro enzymatic inhibition assay (fluorescence); type: biochemical
Method in brief: (§1)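 E. coli-expressed Mpro was preincubated with 10-dose, 3-fold diluted compound for 30 min at room temperature before fluorogenic substrate was added. After 60 min at 30 °C, fluorescence was read at Ex/Em 340/490 nm. Inhibition % was normalized to DMSO and GC376 controls with no-enzyme background correction, and IC50 came from a four-parameter fit.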

MERS Mpro = MERS Mpro (Middle East respiratory syndrome-related coronavirus, UniProt K9N7C7); test: biochemical; set-up: species or system MERS-CoV
HCoV-NL63 Mpro = HCoV-NL63 Mpro (Human coronavirus NL63, UniProt P0C6X5); test: HCoV-NL63 Mpro enzymatic inhibition assay (fluorescence); type: biochemical
Method in brief: as §1

HCoV-OC43 Mpro = HCoV-OC43 Mpro (Human coronavirus OC43, UniProt P0C6X6); test: HCoV-OC43 Mpro enzymatic inhibition assay (fluorescence); type: biochemical
Method in brief: as §1

SARS-CoV-1 Mpro = SARS-CoV-1 Mpro (Severe acute respiratory syndrome coronavirus, UniProt P0C6X7); test: biochemical

Sequence of HCoV-NL63 Mpro (P0C6X5 2940-3242 limits assumed): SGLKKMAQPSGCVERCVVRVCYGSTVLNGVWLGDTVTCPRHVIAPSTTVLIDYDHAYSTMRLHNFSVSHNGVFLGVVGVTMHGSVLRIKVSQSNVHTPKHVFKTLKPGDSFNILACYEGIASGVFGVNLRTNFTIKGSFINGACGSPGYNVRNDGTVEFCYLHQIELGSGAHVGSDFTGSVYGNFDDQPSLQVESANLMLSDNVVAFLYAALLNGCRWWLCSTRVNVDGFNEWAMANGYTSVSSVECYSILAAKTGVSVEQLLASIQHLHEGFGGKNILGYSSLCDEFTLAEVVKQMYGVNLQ
Sequence of HCoV-229E Mpro (P0C6X1 2966-3267 limits assumed): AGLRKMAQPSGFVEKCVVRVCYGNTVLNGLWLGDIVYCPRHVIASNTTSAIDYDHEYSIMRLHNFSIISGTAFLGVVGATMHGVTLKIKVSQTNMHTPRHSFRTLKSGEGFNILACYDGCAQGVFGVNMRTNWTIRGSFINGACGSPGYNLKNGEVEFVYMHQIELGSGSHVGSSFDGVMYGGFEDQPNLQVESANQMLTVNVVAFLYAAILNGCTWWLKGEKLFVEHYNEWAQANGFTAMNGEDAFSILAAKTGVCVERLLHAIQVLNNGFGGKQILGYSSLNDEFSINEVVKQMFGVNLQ
Sequence of MERS Mpro (K9N7C7 3248-3553 limits assumed): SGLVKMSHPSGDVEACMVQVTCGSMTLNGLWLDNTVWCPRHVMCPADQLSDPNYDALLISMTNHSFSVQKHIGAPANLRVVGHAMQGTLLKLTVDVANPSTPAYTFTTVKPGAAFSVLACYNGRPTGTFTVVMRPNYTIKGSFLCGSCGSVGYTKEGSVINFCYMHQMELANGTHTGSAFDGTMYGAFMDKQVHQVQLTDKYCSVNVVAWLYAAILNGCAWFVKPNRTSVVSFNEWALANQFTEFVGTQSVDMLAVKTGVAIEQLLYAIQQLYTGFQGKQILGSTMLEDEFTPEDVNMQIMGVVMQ
Sequence of HCoV-OC43 Mpro (P0C6X6 3247-3549 limits assumed): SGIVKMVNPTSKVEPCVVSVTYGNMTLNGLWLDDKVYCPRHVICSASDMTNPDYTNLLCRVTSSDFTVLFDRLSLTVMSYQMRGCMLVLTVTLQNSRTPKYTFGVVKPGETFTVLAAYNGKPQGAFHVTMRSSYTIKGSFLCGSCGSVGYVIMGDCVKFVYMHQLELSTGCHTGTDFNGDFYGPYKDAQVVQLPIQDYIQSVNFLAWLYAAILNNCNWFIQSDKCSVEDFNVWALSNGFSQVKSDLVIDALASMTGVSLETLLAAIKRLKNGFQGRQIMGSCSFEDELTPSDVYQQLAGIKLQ
Sequence of HCoV-HKU1 Mpro (P0C6X2 3335-3637 limits assumed): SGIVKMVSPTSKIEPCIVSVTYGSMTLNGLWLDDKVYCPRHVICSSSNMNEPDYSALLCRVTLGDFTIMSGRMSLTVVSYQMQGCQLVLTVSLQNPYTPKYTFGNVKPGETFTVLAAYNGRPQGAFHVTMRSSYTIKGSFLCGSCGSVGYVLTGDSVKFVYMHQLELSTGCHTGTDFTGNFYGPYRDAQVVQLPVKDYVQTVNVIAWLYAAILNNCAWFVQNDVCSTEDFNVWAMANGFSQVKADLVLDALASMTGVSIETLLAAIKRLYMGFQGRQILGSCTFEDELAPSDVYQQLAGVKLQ

Structure (SMILES)	IC50 (SARS-CoV-2 Mpro)	IC50 (HCoV-229E Mpro)	IC50 (HCoV-HKU1 Mpro)	IC50 (MERS Mpro)	IC50 (HCoV-NL63 Mpro)	IC50 (HCoV-OC43 Mpro)	IC50 (SARS-CoV-1 Mpro)	IC50 (SARS-CoV-2 Mpro; mean, 25 nM protein, 25 μM substrate, 30 min pre-incubation, 60 min at 30° C., read-out: Mpro_SARS-CoV-2 mean IC50)
Cc1ccc2cc(C(=O)N3C[C@H]4[C@@H]([C@H]3C(=O)N[C@H](C=O)C[C@@H]3CCNC3=O)C4(C)C)[nH]c2c1C [Compound 18, (1R,2S,5S)-3-(6,7-dimethyl-1H-indole-2-carbonyl)-6,6-dimethyl-N—((S)-1-oxo-3-((S)-2-oxopyrrolidin-3-yl)propan-2-yl)-3-azabicyclo[3.1.0]hexane-2-carboxamide]	15.3 nM	38.8 nM	33.1 nM	301 nM	76.1 nM	65.9 nM	33.6 nM	
CC1(C)[C@@H]2[C@@H](C(=O)N[C@H](C=O)C[C@@H]3CCNC3=O)N(C(=O)c3cc4ccc(F)cc4[nH]3)C[C@@H]21 [Compound 19, (1R,2S,5S)-3-(6-fluoro-1H-indole-2-carbonyl)-6,6-dimethyl-N—((S)-1-oxo-3-((S)-2-oxopyrrolidin-3-yl)propan-2-yl)-3-azabicyclo[3.1.0]hexane-2-carboxamide]	15.4 nM	27.4 nM	18 nM	188 nM	37.3 nM	49.7 nM	40.1 nM	
CC1(C)[C@@H]2[C@@H](C(=O)N[C@H](C=O)C[C@@H]3CCNC3=O)N(C(=O)c3cc4c(F)cc(F)cc4[nH]3)C[C@@H]21 [Compound 20, (1R,2S,5S)-3-(4,6-difluoro-1H-indole-2-carbonyl)-6,6-dimethyl-N—((S)-1-oxo-3-((S)-2-oxopyrrolidin-3-yl)propan-2-yl)-3-azabicyclo[3.1.0]hexane-2-carboxamide]	15.5 nM	39.6 nM	16.4 nM	274 nM	37.3 nM	55 nM	40.4 nM	
CC1(C)[C@@H]2[C@@H](C(=O)N[C@H](C=O)C[C@@H]3CCNC3=O)N(C(=O)c3cc4ccc(Cl)c(F)c4[nH]3)C[C@@H]21 [Compound 21, (1R,2S,5S)-3-(6-chloro-7-fluoro-1H-indole-2-carbonyl)-6,6-dimethyl-N—((S)-1-oxo-3-((S)-2-oxopyrrolidin-3-yl)propan-2-yl)-3-azabicyclo[3.1.0]hexane-2-carboxamide]	15.7 nM	22.2 nM	38 nM	234 nM	57.7 nM	59.4 nM	27.6 nM	
CC1(C)[C@@H]2[C@@H](C(=O)N[C@H](C=O)C[C@@H]3CCNC3=O)N(C(=O)CC3CCCC(F)(F)C3)C[C@@H]21 (stereo partly drawn) [Compound 22, (1R,2S,5S)-3-(2-(3,3-difluorocyclohexyl)acetyl)-6,6-dimethyl-N—((S)-1-oxo-3-((S)-2-oxopyrrolidin-3-yl)propan-2-yl)-3-azabicyclo[3.1.0]hexane-2-carboxamide]	15.8 nM	24.4 nM	10.5 nM	123 nM	37.1 nM	28.4 nM	27.7 nM	
CC1(C)[C@@H]2[C@@H](C(=O)N[C@H](C=O)C[C@@H]3CCNC3=O)N(C(=O)Cc3ccccc3)C[C@@H]21 [Compound 23, (1R,2S,5S)-6,6-dimethyl-N—((S)-1-oxo-3-((S)-2-oxopyrrolidin-3-yl)propan-2-yl)-3-(2-phenylacetyl)-3-azabicyclo[3.1.0]hexane-2-carboxamide]		33.8 nM	22.6 nM	126 nM	49.7 nM	30.5 nM	23.3 nM	15.8 nM
CC1(C)[C@@H]2[C@@H](C(=O)N[C@H](C=O)C[C@@H]3CCNC3=O)N(C(=O)c3cc4cc(F)ccc4[nH]3)C[C@@H]21 [Compound 24, (1R,2S,5S)-3-(5-fluoro-1H-indole-2-carbonyl)-N-[(1S)-1-formyl-2-[(3S)-2-oxopyrrolidin-3-yl]ethyl]-6,6-dimethyl-3-azabicyclo[3.1.0]hexane-2-carboxamide]	16.6 nM	32.3 nM	31.8 nM	271 nM	71.7 nM	60.5 nM	73.6 nM	
CC1(C)[C@@H]2[C@@H](C(=O)N[C@H](C=O)C[C@@H]3CCCNC3=O)N(C(=O)c3cc4cccc(Cl)c4[nH]3)C[C@@H]21 [Compound 25, (1R,2S,5S)-3-(7-chloro-1H-indole-2-carbonyl)-6,6-dimethyl-N—((S)-1-oxo-3-((S)-2-oxopiperidin-3-yl)propan-2-yl)-3-azabicyclo[3.1.0]hexane-2-carboxamide]	16.7 nM	33.8 nM	30.2 nM	140 nM	53.8 nM	43 nM	24 nM	
O=C[C@H](C[C@@H]1CCNC1=O)NC(=O)[C@@H]1[C@H]2CCC[C@H]2CN1C(=O)c1cc2ccccc2[nH]1 [Compound 26, (1S,3aR,6aS)-2-(1H-indole-2-carbonyl)-N—((S)-1-oxo-3-((S)-2-oxopyrrolidin-3-yl)propan-2-yl)octahydrocyclopenta[c]pyrrole-1-carboxamide]	16.8 nM	42.7 nM	20.7 nM	173 nM	37.8 nM	28.6 nM	93.7 nM	
CC1(C)[C@@H]2[C@@H](C(=O)N[C@H](C=O)C[C@@H]3CCNC3=O)N(C(=O)c3cc4cc5c(cc4[nH]3)OCO5)C[C@@H]21 [Compound 27, (1R,2S,5S)-3-(5H-[1,3]dioxolo[4,5-f]indole-6-carbonyl)-6,6-dimethyl-N—((S)-1-oxo-3-((S)-2-oxopyrrolidin-3-yl)propan-2-yl)-3-azabicyclo[3.1.0]hexane-2-carboxamide]	17.2 nM	54.7 nM	49 nM	466 nM	82.8 nM	89.2 nM	52.8 nM	
COc1ccc(Cl)c2[nH]c(C(=O)N3C[C@H]4[C@@H]([C@H]3C(=O)N[C@H](C=O)C[C@@H]3CCNC3=O)C4(C)C)cc12 [Compound 28, (1R,2S,5S)-3-(7-chloro-4-methoxy-1H-indole-2-carbonyl)-6,6-dimethyl-N—((S)-1-oxo-3-((S)-2-oxopyrrolidin-3-yl)propan-2-yl)-3-azabicyclo[3.1.0]hexane-2-carboxamide]	18 nM	35.6 nM	19.9 nM	224 nM	50.9 nM	43.2 nM	26.9 nM	
CC1(C)[C@@H]2[C@@H](C(=O)N[C@H](C=O)C[C@@H]3CCNC3=O)N(C(=O)c3cc4cccc(C(F)(F)F)c4[nH]3)C[C@@H]21 [Compound 29, (1R,2S,5S)-6,6-dimethyl-N—((S)-1-oxo-3-((S)-2-oxopyrrolidin-3-yl)propan-2-yl)-3-(7-(trifluoromethyl)-1H-indole-2-carbonyl)-3-azabicyclo[3.1.0]hexane-2-carboxamide]	18.3 nM	47.4 nM	53.5 nM	296 nM	93.9 nM	87 nM	35.2 nM	
CC1(C)[C@@H]2[C@@H](C(=O)N[C@H](C=O)C[C@@H]3CCNC3=O)N(C(=O)c3cc4sccc4[nH]3)C[C@@H]21 [Compound 30, (1R,2S,5S)-6,6-dimethyl-N—((S)-1-oxo-3-((S)-2-oxopyrrolidin-3-yl)propan-2-yl)-3-(4H-thieno[3,2-b]pyrrole-5-carbonyl)-3-azabicyclo[3.1.0]hexane-2-carboxamide]	18.6 nM	24.5 nM	26 nM	239 nM	49.7 nM	43.8 nM	51.1 nM	
COc1cccc2[nH]c(C(=O)N3CC4(CC4)C[C@H]3C(=O)N[C@H](C=O)C[C@@H]3CCNC3=O)cc12 [Compound 31, (S)-5-(4-Methoxy-1H-indole-2-carbonyl)-N—((S)-1-oxo-3-((S)-2-oxopyrrolidin-3-yl)propan-2-yl)-5-azaspiro[2.4]heptane-6-carboxamide]	18.9 nM	31.7 nM	14.2 nM	188 nM	49.3 nM	22.2 nM	34 nM	
CC1(C)[C@@H]2[C@@H](C(=O)N[C@H](C=O)C[C@@H]3CCNC3=O)N(C(=O)c3cc4cccc(C#N)c4[nH]3)C[C@@H]21 [Compound 32, (1R,2S,5S)-3-(7-cyano-1H-indole-2-carbonyl)-6,6-dimethyl-N—((S)-1-oxo-3-((S)-2-oxopyrrolidin-3-yl)propan-2-yl)-3-azabicyclo[3.1.0]hexane-2-carboxamide]	19.7 nM	35.4 nM	21.8 nM	177 nM	59.6 nM	52.4 nM	36.3 nM	
Cc1cccc2cc(C(=O)N3C[C@H]4[C@@H]([C@H]3C(=O)N[C@H](C=O)C[C@@H]3CCNC3=O)C4(C)C)[nH]c12 [Compound 33, (1R,2S,5S)-6,6-Dimethyl-3-(7-methyl-1H-indole-2-carbonyl)-N—((S)-1-oxo-3-((S)-2-oxopyrrolidin-3-yl)propan-2-yl)-3-azabicyclo[3.1.0]hexane-2-carboxamide]	19.7 nM	43.5 nM	37.9 nM	227 nM	78 nM	83.2 nM	34 nM	
